From patent US20230390278A1, “SYNERGISTIC COMBINATIONS OF VALPROOIC ACID AND QUINACRINE” (VESTLANDETS INNOVASJONSSELSKAP AS, priority 2020, published 2023)
Like-named read-outs stand apart in the source and are kept apart here. One block for each compound: values may come before it.

Columns and labels:
[1] = Plasma levels of QC and VPA in blood of off-label treated AML patients, measured by LC/MS; type: in vivo, human; conditions: for concentration at 3 h: 3 h after intake; for concentration at 25 day: Patient 1, day 25, QC 200 mg/day, VPA 600 + 1200 mg/day; for concentration at 64 day: Patient 1, day 64, QC 300 mg/day; for concentration at 163 day: Patient 1, day 163, QC 400 mg/day; for concentration at 65 day: Patient 2, day 65, QC 200 mg/day
From the text: The plasma concentration may be the blood plasma concentration or bone marrow plasma concentration. […] Plasma concentrations may be determined by liquid chromatography-mass spectrometry (LC-MS).

[2] = Plasma levels of QC and VPA in bone marrow (BM) of off-label treated AML patients, measured by LC/MS; type: in vivo, human
[3] = human, oral, Plasma VPA, VPA 300 + 600 mg/day
[4] = human, oral, VPA 300 + 600 mg/day, read-out: Plasma QC

- Plasma VPA ([1]; Patient 1, day 128, QC 400 mg/day, VPA 600 + 900 mg/day, neg: negative): neg
- concentration at 3 h ([1]; human, oral, Plasma VPA, Patient 1, day 1, QC 100 mg/day, VPA 300 + 300 mg/day): 17100 nM
- concentration at 25 day ([1]; human, oral, Plasma VPA): 43000 nM
- concentration at 64 day ([1]; human, oral, Plasma VPA, VPA 600 + 900 mg/day): 25600 nM
- concentration at 163 day [1, 3]: 119000 nM
- concentration at 3 h ([1]; human, oral, Plasma VPA, Patient 2, day 1, QC 100 mg/day, VPA 300 + 600 mg/day): 156000 nM
- concentration at 15 day ([1]; human, oral, Plasma VPA, Patient 2, day 15, QC 200 mg/day, VPA 600 + 600 mg/day): 442000 nM
- concentration at 65 day [1, 3]: 341000 nM
- concentration at 3 h ([1]; human, oral, Plasma VPA, Patient 3, day 1, QC 100 mg/day, VPA 300 + 300 mg/day): 120000 nM
- concentration at 15 day ([1]; human, oral, Plasma VPA, Patient 3, day 15, QC 300 mg/day, VPA 300 + 600 mg/day): 41300 nM
Compound: CCCC(CCC)C(=O)O [VPA, 2-propylvaleric acid]

- Plasma QC, BM ([2]; Patient 1, day 163, QC 400 mg/day, VPA 300 + 600 mg/day): BM: 44 nM
- Plasma QC, BM ([2]; Patient 2, day 15, QC 200 mg/day, VPA 600 + 600 mg/day): BM: 32 nM
- Plasma QC, BM ([2]; Patient 2, day 65, QC 200 mg/day, VPA 300 + 600 mg/day): BM: 332 nM
- concentration at 3 h ([1]; human, oral, Patient 1, day 1, QC 100 mg/day, VPA 300 + 300 mg/day, read-out: Plasma QC): 4 nM
- concentration at 25 day ([1]; human, oral, read-out: Plasma QC): 52 nM
- concentration at 64 day ([1]; human, oral, VPA 600 + 900 mg/day, read-out: Plasma QC): 138 nM
- concentration at 128 day ([1]; human, oral, Patient 1, day 128, QC 400 mg/day, VPA 600 + 900 mg/day): 38 nM
- concentration at 163 day [1, 4]: 38 nM
- concentration at 3 h ([1]; human, oral, Patient 2, day 1, QC 100 mg/day, VPA 300 + 600 mg/day, read-out: Plasma QC): 8 nM
- concentration at 15 day ([1]; human, oral, Patient 2, day 15, QC 200 mg/day, VPA 600 + 600 mg/day, read-out: Plasma QC): 18 nM
- concentration at 65 day [1, 4]: 130 nM
- concentration at 3 h ([1]; human, oral, Patient 3, day 1, QC 100 mg/day, VPA 300 + 300 mg/day, read-out: Plasma QC): 8 nM
- concentration at 15 day ([1]; human, oral, Patient 3, day 15, QC 300 mg/day, VPA 300 + 600 mg/day, read-out: Plasma QC): 300 nM
Compound: CCN(CC)CCCC(C)Nc1c2ccc(Cl)cc2nc2ccc(OC)cc12 (racemic) [QC, (RS)-N′-(6-chloro-2-methoxy-acridin-9-yl)-N, N-diethyl-pentane-1,4-diamine]
